Results from ChEMBL document CHEMBL1201862, “PubChem BioAssay data set” (2004).
Active and inactive are the calls of the source.

How the values were obtained:
[1] = inhibitors of SNCA 5'UTR-driven reporter translation, confirmation, H4 neuroglioma cells, luminescence (AID 1988); assay type: functional, cell-based
[2] = inhibitors of clade B AD8 Env fusion, dose response, cell-based, cherry-pick (AID 652062); assay type: functional;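 further: luciferase signal from cell-cell fusion driven by HIV-1 clade B AD8 Env; potency is for inhibitors of fusion seen as a drop in luminescence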
[3] = cytotoxicity dependent on PAX8, dose response, cell-based, plate reader, dry powder (AID 743049); assay type: functional
[4] = inhibitors of HIV Env-driven cell fusion, dose response, cherry-pick (AID 652057); assay type: functional, cell-based
[5] = LGR2 antagonists, dose response, cell-based, HEK293, CRE-luciferase reporter, cherry pick, set 2 (AID 743343); assay type: functional;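 further: transfected cells were stimulated with diluted bursicon conditioned medium after compound addition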
[6] = MC4R antagonists, dose response, counter-screen for LGR2 antagonist project, cell-based, plate reader, cherry pick (AID 743444); assay type: functional;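 further: transfected HEK 293 cells stimulated with alpha-MSH peptide; potency of inhibitors of the alpha-MSH evoked signal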
[7] = ZM109 Env clade C HIV-1 fusion inhibitors, dose response, HeLa effector, CEM target cells, luciferase, cherry-pick (AID 652058); assay type: functional, cell-based
Paired box protein Pax-8 = Paired box protein Pax-8 (Homo sapiens, UniProt Q06710); assay: inhibitors of PAX8-driven TPO luciferase reporter, dose response, RMG-I cells, cherry-pick (AID 687027); assay type: functional, cell-based;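 further: luciferase reporter driven by Pax8 target thyroperoxidase promoter measured by SteadyGlo luminescence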
Paired box protein Pax-8, sequence (Q06710 whole entry, the tested form may be a part): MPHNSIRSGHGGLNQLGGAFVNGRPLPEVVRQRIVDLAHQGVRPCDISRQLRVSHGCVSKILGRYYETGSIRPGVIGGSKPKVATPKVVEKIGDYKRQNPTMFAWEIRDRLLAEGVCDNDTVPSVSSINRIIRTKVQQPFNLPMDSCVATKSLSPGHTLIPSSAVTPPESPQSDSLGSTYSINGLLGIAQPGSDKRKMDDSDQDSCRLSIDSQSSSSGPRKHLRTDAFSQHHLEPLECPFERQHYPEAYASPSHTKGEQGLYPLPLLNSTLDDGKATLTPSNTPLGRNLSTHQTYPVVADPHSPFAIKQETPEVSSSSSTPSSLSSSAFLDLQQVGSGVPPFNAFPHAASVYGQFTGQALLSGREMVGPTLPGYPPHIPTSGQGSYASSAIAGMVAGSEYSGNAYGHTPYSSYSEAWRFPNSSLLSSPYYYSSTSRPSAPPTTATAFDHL

[8] = off-target signal loss in HeLa-CEM21 co-culture – HeLa F-luc CTL cells, cherry-picked, counter-screen for HIV-1 Env fusion inhibitor project, dose response (AID 652040); assay type: functional, cell-based;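 further: potency for signal decrease marking cytotoxic or nonspecific inhibition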
[9] = PAX2 cell-based inhibition, dose response, selectivity assay for PAX8 inhibitor project, plate reader, dry powder samples (AID 743048); assay type: functional;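 further: HEK293 cells carrying a WT1 promoter luciferase reporter driven by expressed Pax2; potency is for inhibition of Pax2 driven reporter signal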
[10] = cytotoxicity in HEK-293T cells, dose response, cytotoxicity control for BCR NF-kB inhibitor project, luminescence, B-cell screen hits (AID 489021); assay type: functional, cell-based;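 further: HEK-293T cells carrying an NF-kB luciferase reporter; cells exposed to compound for about 14 hours before viability readout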
[11] = inhibitors of firefly luciferase expression or activity, dose response, H4 neuroglioma cells, luminescence (AID 1990); assay type: functional, cell-based
[12] = biological target: Heat shock protein HSP 90-alpha (Homo sapiens, UniProt P07900); assay: Luminescence-based dose response biochemical high throughput screening assay for inhibitors of the Heat Shock Protein 90 (HSP90). [Related pubchem assays: 1831 (Summary AID.), 1846 (Confirmation screen.), 1789 (Primary screen.)]
[13] = PAX5 activity inhibitors, dose response, selectivity assay for PAX8 inhibitor project, cell-based, plate reader, dry powder samples (AID 743047); assay type: functional;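 further: HEK293 cells carrying a Pax5 driven CD19 promoter luciferase reporter; potency of inhibitors that lower reporter luminescence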
[14] = Luminescence Cell-Based Dose Response HTS to Identify Inhibitors of 5'UTR Stem-Loop Driven Prion Protein mRNA Translation in H4 Neuroglioblastoma Cells. [Related pubchem assays: 1827 (Project Summary), 1813 (Primary HTS)]; assay type: functional
[15] = Vero cell cytotoxicity, dose response, cytotoxicity control for Vif-APOBEC3G degradation inhibitor project, Vero cells (AID 1117358); assay type: functional; conditions: Human immunodeficiency virus 1, Vero
[16] = M. tuberculosis growth inhibition, HTS (AID 449762); assay type: functional

SMILES: O=C(CN1C(=O)c2ccccc2S1(=O)=O)c1ccccc1Cl
- EC50 [1]: 0.104 µM (active)
- AC50 [2]: 4.22 µM (active)
- AC50 [3]: > 100 µM (inactive)
- AC50 [4]: 2.17 µM (active)
- AC50 [5]: 0.665 µM (active)
- AC50 [6]: 0.805 µM (active)
- AC50 [7]: 12.5 µM (active)
- AC50 (Paired box protein Pax-8): 7.18 µM (active)
- AC50 [8]: 1.52 µM (active)
- AC50 [9]: 9.61 µM (active)
- IC50 [10]: > 80 µM (inactive)
- EC50 [11]: 0.283 µM (active)
- IC50 [12]: 4.2 µM (active)
- AC50 [13]: 7.1 µM (active)
- EC50 [14]: 0.364 µM (active)

SMILES: CC(=O)CSc1nnc(-c2ccc3c(c2)OCO3)o1
- IC50 [12]: 9.39 µM (active)

SMILES: COc1cc(NC(=O)NCCN2CCN(c3ccc(Cl)cc3)CC2)ccc1C
- EC50 [1]: > 120 µM (not active)
- CC50 [15]: > 40 µM (active)
- EC50 [11]: 20.5 µM (active)
- EC50 [14]: > 120 µM (not active)

SMILES: CC(C)(C)c1ccc(-c2nnc(SCCC#N)n2C2CCCC2)cc1
- CC50 [15]: > 40 µM (active)

SMILES: CCCc1ncc(CN2CCCC(C(=O)Nc3ccc(-c4cccc(OC)c4)cc3)C2)cn1 (configuration not stated)
- IC50 [16]: > 100 µM (active)
